Results as given in patent US20170007615A1, “Antibacterial Compounds” (priority 2014, published 2017).
≈ marks a conversion by molar mass, not a printed value. Where two headings read alike, the source gives them in different places. Positions of bridges follow the written chain, without caps; N, C: chain ends. Non-standard residues stand in square brackets, D forms with d. Residues, ends and D or L forms follow the SMILES beside them. *: point of attachment. Ileψ(thiazoline)Cys = CC[C@H](C)[C@H](N)C1=N[C@H](C(=O)*)CS1; dOrn = NCCC[C@@H](N)C(=O)O

Assays:
E. coli (ATCC 25922) [1] = settings: for MIC of Compound (μg/ml) in the presence of PMBN (32 μg/ml): (b) No significant effect; for MIC of Compound (μg/ml) in the presence of PMBN (128 μg/ml): Table 1, (b) No effect
E. coli (ATCC 25922) [2] = assay: microbe, parasite or virus in culture; settings: Escherichia coli
[3] = ATCC25922, read-out: MIC Compound alone, Table 12
[4] = ATCC25922, read-out: MIC Compound alone, Table 1

Compound | MIC of Compound (μg/ml) in the presence of PMBN (32 μg/ml) (E. coli (ATCC 25922) [1]; Table 12) | MIC of Compound (μg/ml) in the presence of PMBN (128 μg/ml) (E. coli (ATCC 25922) [1]) | MIC (E. coli (ATCC 25922) [2]; [4]) | other results
CC1(C)S[C@@H]2[C@H](NC(=O)[C@H](N)c3ccc(O)cc3)C(=O)N2[C@H]1C(=O)O [Amoxicillin, reference compound] | 8 µg/mL |  |  | MIC (E. coli (ATCC 25922) [2]; [3]): 32 µg/mL (≈ 87.6 µM)
CC[C@H](C)[C@H](N)C1=N[C@H](C(=O)N[C@@H](CC(C)C)C(=O)N[C@H](CCC(=O)O)C(=O)N[C@H](C(=O)N[C@H]2CCCCNC(=O)[C@H](CC(N)=O)NC(=O)[C@@H](CC(=O)O)NC(=O)[C@H](Cc3cnc[nH]3)NC(=O)[C@@H](Cc3ccccc3)NC(=O)[C@H]([C@@H](C)CC)NC(=O)[C@@H](CCCN)NC2=O)[C@@H](C)CC)CS1 [Bacitracin, reference compound] ({Ileψ(thiazoline)Cys}-L[dE]IK[dOrn]I[dF]H[dD]N; lactam 4-C) | >64^(b) μg/ml |  |  | MIC Compound alone (E. coli (ATCC 25922) [1]; ATCC 25922): >64 µg/mL
CC1(C)S[C@@H]2[C@H](NC(=O)C(C(=O)O)c3ccccc3)C(=O)N2[C@H]1C(=O)O (some centres unmarked) [Carbenicillin, reference compound] | 32^(b) μg/ml |  |  | MIC (E. coli (ATCC 25922) [2]; [3]): 64 µg/mL (≈ 169 µM)
CC(C)(O/N=C(\C(=O)N[C@@H]1C(=O)N2C(C(=O)[O-])=C(C[n+]3ccccc3)CS[C@H]12)c1csc(N)n1)C(=O)O [Ceftazidime, reference compound] | 0.15 µg/mL |  |  | MIC (E. coli (ATCC 25922) [2]; [3]): 0.6 µg/mL (≈ 1.1 µM)
CO/N=C(\C(=O)N[C@@H]1C(=O)N2C(C(=O)O)=C(CSc3nc(=O)c(=O)[nH]n3C)CS[C@H]12)c1csc(N)n1 [Ceftriaxone, reference compound] | 0.06^(b) μg/ml |  |  | MIC (E. coli (ATCC 25922) [2]; [3]): 0.06 µg/mL (≈ 0.108 µM)
O=C(N[C@H](CO)[C@H](O)c1ccc([N+](=O)[O-])cc1)C(Cl)Cl [Chloramphenicol, reference compound] | 1 µg/mL |  |  | MIC (E. coli (ATCC 25922) [2]; [3]): 4 µg/mL (≈ 12.4 µM)
CCNC(=O)Nc1nc2cc(-c3cnc(NC(=O)N4CC[C@@H](O)C4)nc3)cc(-c3ccc(C)cn3)c2s1 [Compound A-1, (3R)—N-[5-[2-(Ethylcarbamoylamino)-7-(5-methyl-2-pyridyl)-1,3-benzothiazol-5-yl]pyrimidin-2-yl]-3-hydroxy-pyrrolidine-1-carboxamide] |  | 0.12 µg/mL | > 64 µg/mL | 
CCNC(=O)Nc1nc2cc(-c3cc(C)n(Cc4cccc(C)n4)c(=O)c3)cc(-c3ccccn3)c2s1 [Compound A-2, 1-Ethyl-3-[5-[2-methyl-1-[(6-methyl-2-pyridyl)methyl]-6-oxo-4-pyridyl]-7-(2-pyridyl)-1,3-benzothiazol-2-yl]urea] |  | <=.12 μg/ml | > 64 µg/mL | 
CN(C)c1cc(NC(=O)CNC(C)(C)C)c(O)c2c1C[C@H]1C[C@H]3[C@H](N(C)C)C(O)=C(C(N)=O)C(=O)[C@@]3(O)C(O)=C1C2=O [Tigecyclin, reference compound] | ≦0.25^(b) μg/ml |  |  | MIC Compound alone (E. coli (ATCC 25922) [1]; Table 12): ≦0.25 μg/ml
Gentamicin [reference compound] | 8^(b) μg/ml |  |  | MIC Compound alone (E. coli (ATCC 25922) [1]; Table 12): 8 µg/mL
Polymyxin B [PMB, reference compound] |  |  |  | MIC PMB alone (E. coli (ATCC 25922) [1]; Table 3): 1 µg/mL

Continued, in another order:

MIC of Compound (μg/ml) in the presence of PMBN (32 μg/ml) (E. coli (ATCC 25922) [1]; Table 12) | MIC of Compound (μg/ml) in the presence of PMBN (128 μg/ml) (E. coli (ATCC 25922) [1]) | MIC (E. coli (ATCC 25922) [2]; [4]) | Compound | other results
 | <=1 μg/ml | > 64 µg/mL | CCNC(=O)Nc1nc2cc(-n3cnc(C)c3)cc(-c3ccccn3)c2s1 [Compound A-3, 1-Ethyl-3-[5-(4-methylimidazol-1-yl)-7-(2-pyridyl)-1,3-benzothiazol-2-yl]urea] | MIC of Compound (μg/ml) in the presence of Colistin (1 μg/ml) (E. coli (ATCC 25922) [1]; Table 2, colistin sub-inhibitory): ≦1 μg/ml; MIC of Compound (μg/ml) in the presence of PMB (0.5 μg/ml) (E. coli (ATCC 25922) [1]; Table 3, PMB sub-inhibitory): ≦1 μg/ml; MIC (E. coli (ATCC 25922) [2]; ATCC25922, read-out: MIC Compound alone, Table 2): > 64 µg/mL; MIC (E. coli (ATCC 25922) [2]; ATCC25922, read-out: MIC Compound alone, Table 3): > 64 µg/mL
 | 0.5 µg/mL | > 64 µg/mL | CCNC(=O)Nc1nc2cc(-c3cc(C)n(C(C)c4ccc(C)nc4)c(=O)c3)cc(-c3ccccn3)c2s1 (centres unmarked) [Compound A-4, 1-Ethyl-3-[5-[2-methyl-1-[1-(6-methyl-3-pyridyl)ethyl]-6-oxo-4-pyridyl]-7-(2-pyridyl)-1,3-benzothiazol-2-yl]urea] | 
 | 0.008 µg/mL | > 64 µg/mL | CCNC(=O)Nc1nc2cc(-c3cnc(NC(=O)OC)nc3)cc(-c3ccccn3)c2s1 [Compound A-5, Methyl N-[5-[2-(ethylcarbamoylamino)-7-(2-pyridyl)-1,3-benzothiazol-5-yl]pyrimidin-2-yl]carbamate] | 
 | 0.25 µg/mL | > 64 µg/mL | CCNC(=O)Nc1nc2cc(-c3cnc(NC(=O)N4CCCC4)nc3)cc(-c3cc(CN4CCOCC4)ccn3)c2s1 [Compound A-6, N-[5-[2-(Ethylcarbamoylamino)-7-[4-(morpholinomethyl)-2-pyridyl]-1,3-benzothiazol-5-yl]pyrimidin-2-yl]pyrrolidine-1-carboxamide] | 
 | 4 µg/mL | 32 µg/mL (≈ 85.7 µM) | CCNC(=O)Nc1nc2cc(-c3cnc(C(C)(O)CO)nc3)ccc2s1 (centres unmarked) [Compound A-7, 1-[5-[2-(1,2-Dihydroxy-1-methyl-ethyl)pyrimidin-5-yl]-1,3-benzothiazol-2-yl]-3-ethyl-urea] | 
 | 2 µg/mL | 32 µg/mL (≈ 82.6 µM) | CCNC(=O)Nc1nc2cc(-c3cnc(C(C)(O)CO)nc3)cc(C)c2s1 (centres unmarked) [Compound A-9, 1-[5-[2-(1,2-Dihydroxy-1-methyl-ethyl)pyrimidin-5-yl]-7-methyl-1,3-benzothiazol-2-yl]-3-ethyl-urea] | 
 | 0.25 µg/mL | > 64 µg/mL | CCNC(=O)Nc1nc2cc(-c3cnc(NS(=O)(=O)CC(=O)OC)nc3)cc(-c3ccc(C)cn3)c2s1 [Compound A-16, Methyl 2-[[5-[2-(ethylcarbamoylamino)-7-(5-methyl-2-pyridyl)-1,3-benzothiazol-5-yl]pyrimidin-2-yl]sulfamoyl]acetate] | 
 | 0.03 µg/mL | 2 µg/mL (≈ 3.92 µM) | C=CCS(=O)(=O)Nc1ncc(-c2cc(-c3ccc(C)cn3)c3sc(NC(=O)NCC)nc3c2)cn1 [Compound A-17, 1-[5-[2-(allylsulfonylamino)pyrimidin-5-yl]-7-(5-methyl-2-pyridyl)-1,3-benzothiazol-2-yl]-3-ethyl-urea] | 
 | 0.12 µg/mL | > 64 µg/mL | CCNC(=O)Nc1nc2cc(-c3cnc(NS(=O)(=O)C(C)(C)C)nc3)cc(-c3cnc(N(C)C)nc3)c2s1 [Compound A-18, 1-[5-[2-(tert-butylsulfonylamino)pyrimidin-5-yl]-7-[2-(dimethylamino)pyrimidin-5-yl]-1,3-benzothiazol-2-yl]-3-ethyl-urea] | 
 | <=.12 μg/ml | > 64 µg/mL | CCNC(=O)Nc1nc2cc(-c3cnc(CNS(C)(=O)=O)nc3)cc(-c3ccc(C)cn3)c2s1 [Compound A-19, 1-ethyl-3-[5-[2-(methanesulfonamidomethyl)pyrimidin-5-yl]-7-(5-methyl-2-pyridyl)-1,3-benzothiazol-2-yl]urea] | 
 | 32 µg/mL | > 64 µg/mL | CCNC(=O)Nc1nc2cc(-c3cnc(NS(=O)(=O)C(C)(C)C)nc3)cc(N3CCN(CCN4CCCC4)CC3)c2s1 [Compound A-20, 1-[5-[2-(tert-butylsulfonylamino)pyrimidin-5-yl]-7-[4-(2-pyrrolidin-1-ylethyl)piperazin-1-yl]-1,3-benzothiazol-2-yl]-3-ethyl-urea] | 
